Experimental data published in PMC12561670, “Isolation of Dual-Active Drugs with Anticancer and Antibacterial Activities That Target Both Tubulin and FtsZ” (Antibiotics, 2025).

Legend:
FtsZ = molecular target: T1, FtsZ (Staphylococcus aureus, UniProt P0A031); assay: Sedimentation assay of FtsZ polymerization; type: biochemical; settings: 50 μM compound, 5 μM FtsZ, 37 °C 30 min
T1 construct: His tag; made in house; host or cells: E. coli BL21(DE3)
T1 sequence (P0A031 1-390): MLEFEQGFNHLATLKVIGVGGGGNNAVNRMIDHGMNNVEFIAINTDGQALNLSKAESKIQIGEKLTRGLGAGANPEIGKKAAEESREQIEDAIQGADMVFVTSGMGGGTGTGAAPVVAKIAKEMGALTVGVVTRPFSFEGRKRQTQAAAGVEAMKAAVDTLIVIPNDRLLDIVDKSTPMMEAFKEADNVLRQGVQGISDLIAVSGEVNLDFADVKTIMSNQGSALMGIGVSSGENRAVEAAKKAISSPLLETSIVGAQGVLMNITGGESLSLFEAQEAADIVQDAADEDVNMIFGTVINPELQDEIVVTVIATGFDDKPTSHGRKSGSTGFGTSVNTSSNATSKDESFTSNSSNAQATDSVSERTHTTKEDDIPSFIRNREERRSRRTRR
Description: Sedimentation assay was also conducted for the influence of compounds on FtsZ polymerization. FtsZ (5 μM) was polymerized in a buffer containing 25 mM Pipes buffer (pH 6.8) and 3 mM MgSO4 in the […] of DMSO or compounds (50 μM). After the addition of 4 mM GTP, the sample was instantly placed at 37 °C for 30 min. Then, the polymers were collected by centrifuging for 30 min at 25 °C. The protein concentration in the supernatant was determined using the Bradford quantification method, with bovine serum albumin (BSA) as the standard. The experiment was performed in triplicate, and the average absorbance is shown.

S. aureus BNCC336423 = assay: Time–killing curve; type: cell-based; settings: S. aureus BNCC336423, concentrations of 4× the MIC or greater
Description: S. aureus BNCC336423 was employed for the time–killing curve study. […] Meanwhile, DMSO with an equivalent volume was added to the vehicle control tube. The cultures were then subjected to shaking incubation at 37 °C. Subsequently, cultures were taken out at predetermined time intervals (0, 1, 2, 4, 6, 8, and 24 h), centrifuged at 16,000×g for 3 min, and diluted to an appropriate multiple. These diluted samples were then plated onto Tryptic Soy Agar (TSA) plates for enumeration. Following a 24 h incubation period at 37 °C, colonies on the TSA plates were counted for the CFU/mL, thereby providing insights into the time-dependent bactericidal activity of the tested compounds.

S. aureus FtsZ = molecular target: T2, S. aureus FtsZ (Staphylococcus aureus, UniProt P0A031); assay: FtsZ polymerization assay (A340); type: biochemical
T2 construct: His tag; made in house; host or cells: E. coli BL21(DE3)
T2 sequence (P0A031 1-390): T1 sequence (P0A031 1-390)
Description: The effect of compounds on S. aureus FtsZ polymerization was monitored by employing a microtiter plate-based spectrophotometric assay method, and the reactions were conducted in flat-bottomed 96-well microtiter plates. The degree of FtsZ polymerization was reflected by the corresponding changes in absorbance at 340 nm (A340). […] The polymerization reaction began immediately once 4 mM GTP was added, and then the polymerization was continuously monitored at 25 °C for 60 min by measuring A340 in BioTek-Synergy4 multifunctional enzyme-linked immunosorbent assay (ELISA) reader.

E. coli = assay: In vivo antibacterial activity, mouse peritoneal infection; set-up: species or system CD-1 male mice
Source text: SPF grade CD-1 male mice weighing 30 ± 3 g were purchased from Shanghai Slake Experimental Animal Co., Ltd. (Shanghai, China). […] Immediately following this, the mice were intraperitoneally injected with the test compounds. Each experimental group consisted of five mice, with each compound being tested at two distinct concentration gradients (determined based on the minimum inhibitory concentration, MIC). A separate group received physiological saline as a negative control. The subsequent assessment focused on evaluating the therapeutic potential of these drugs against bacterial infections. On the first and third days post-administration, 2 mL of sterile physiological saline was injected into the peritoneal cavity of each mouse. After a gentle two-minute dilution under sterile conditions, the abdominal fluid was extracted for bacterial enumeration using the plate counting method. Furthermore, the clinical manifestations of each mouse group, encompassing mental status, appetite, and other relevant parameters, were meticulously observed over a seven-day period. On the seventh day, the mice were euthanized, and a thorough macroscopic examination was conducted to assess the pathological changes in various vital organs.

Structure (SMILES): CC(C)(C)c1[nH]cnc1/C=c1\[nH]c(=O)/c(=C/c2ccccc2)[nH]c1=O [Compound 23, Plinabulin]
- effect on FtsZ sedimentation (polymerization amount) (FtsZ): markedly enhanced protein sedimentation
- logs of kill in time–kill (S. aureus BNCC336423): 3 logs
- effect on FtsZ polymerization (A340) (S. aureus FtsZ; 50 μM compound, 5 µM FtsZ, 4 mM GTP, vs DMSO): remarkable promoting effect on FtsZ polymerization
- effect on FtsZ polymerization at different concentrations (S. aureus FtsZ; 5, 10, 20 and 50 μM, initial 10 min): markedly accelerated FtsZ polymerization
- bacterial count of peritoneal fluid (E. coli; mice i.p. E. coli, i.p. compound, days 1 and 3): substantially mitigated
- clinical presentation of infected mice (E. coli; seven-day observation): exhibited vitality, maintained a healthy appetite
